Source: a melting point compilation (Tetko et al.)
Peptide text beside a SMILES is read from it.

melting point [°C]	Structure (SMILES)
39	Cc1cc(Cl)c(O)c(Cl)c1
151 to 154	O=C(O)CS(=O)(=O)C=Cc1ccccc1
205 to 207	O=[N+]([O-])c1ccc2[nH]ccc2c1
220	O=c1[nH]nc2oc3ccccc3cc1-2
231 to 233	O=C(O)c1ccc(-c2ccccn2)s1
218	Nc1ncnc2c1cnn2CCO
50 to 51	OCc1ccccc1COc1ccccc1
150	CN(C)c1ccc(N=C(C#N)c2cccc(C(C#N)=Nc3ccc(N(C)C)cc3)c2)cc1
139 to 141	O=Cc1c(Sc2ccc(Cl)cc2)nc2sccn12
143 to 144	c1ccc2c(c1)CC1(OCCO1)c1ccccc1CC21OCCO1
250	O=Cc1ccc(O)c(C(=O)O)c1
220 to 247	O=C1OC(=O)C23CC4=C(CC=CC4)CC12CC1=C(CC=CC1)C3 (configuration not stated)
30	CCOC(=O)C=C(C)OCC
-60	C#CCCCCCC
81 to 83	N#CCC(=O)c1ccco1
244	O=C(Oc1ccc(Cl)cc1)c1c(Cl)c(Cl)c(C(=O)Oc2ccc(Cl)cc2)c(Cl)c1Cl
238	C=C1C(=O)C23C4CC5C(C)(C)CCC(OC(C)=O)C5(C(=O)O4)C2C(OC(C)=O)CC1C3O (configuration not stated)
96	CC(=O)Oc1ccccc1C(=O)Oc1ccccc1
126	Nc1cc(-c2ccco2)[nH]n1

melting point [°C]	Structure (SMILES)
147	COC(=O)c1ccnc(N)c1
134	Nc1ccc(CCC(=O)O)cc1
74	O=C(/C=C/c1ccc(OCCCCl)cc1)c1ccccc1
115	Brc1ccc(Sc2ccc(Br)cc2)cc1
210	O=[N+]([O-])c1ccc(-c2nnc3n2NC(c2ccco2)S3)cc1 (configuration not stated)
161 to 162	CC(C)C1(NC(=O)c2ccccc2)COCOC1=O (racemic)
188 to 190	CC(Cc1oc2c(c3c(c4ccccc42)O[C@@H]2CC(=O)O[C@H]32)c(=O)c1[Si](C)(C)C)O[Si](C)(C)C(C)(C)C (some centres not stated)
300	CCSc1nc(N)c(Br)c(O)n1
273 to 275	O=C(O)[C@@H]1Cc2ccc(O)cc2CN1
229 to 230	Cc1ccc(C(=O)NC(=Cc2ccccc2)C(=O)O)cc1
229 to 231	O=C(O)c1ccc2nsnc2c1
148	Cc1ccc(O[C@H]2CC[C@@]3(C)C(=CC[C@H]4[C@@H]5CC[C@H]([C@H](C)CCCC(C)C)[C@@]5(C)CC[C@@H]43)C2)cc1
117 to 119	CC(=O)c1cc(-c2c(Cl)cccc2Cl)no1
231 to 232	Cc1oc(-c2ccc(Cl)cc2)cc1C(=O)O
35	COc1cc(Br)cc(F)c1F
230	C=C1C(=O)C23C4CC5C(C)(C)CCC(OC(C)=O)C5(C(OC(C)=O)O4)C2C(OC(C)=O)CC1C3OC(C)=O (configuration not stated)
182	CC(C)(C(=O)O)n1nnc2ccccc21
135 to 136	COC(=O)c1cccc2c1-c1ccccc1C2=O

Second part, the molecule before the results:

Structure (SMILES)	melting point [°C]
N#Cc1ccc(F)cn1	43
COc1ccc2cc([N+](=O)[O-])ccc2c1C=O	174
N[C@@H](CC(=O)O)C(=O)N[C@@H](Cc1ccccc1)C(=O)O (H-Asp-Phe-OH)	236 to 239
O=C(O)c1cccc(-c2cc[nH]n2)c1	204
NC(c1ccccc1)c1ccccc1	34
N=C(NCCCC(N)C(=O)O)N[N+](=O)[O-] (configuration not stated)	257
O=[N+]([O-])c1ccc2nc(C(Cl)(Cl)Cl)[nH]c2c1	210 to 212
CC1=CCC(O)(C(C)C)CC1 (configuration not stated)	14.7
CC1=C/C(=N/NC(N)=O)C(C(C)C)CC1 (configuration not stated)	219 to 220
CCCCCOC(=O)Nc1nc(=O)n(C2OC(C)C(O)C2O)cc1F (configuration not stated)	116
NC(=O)c1c(F)ccc(F)c1F	117
O=C(O)C1=NN(c2ccccc2)C(=O)C1=CC1C(=O)N(c2ccccc2)N=C1C(=O)O (configuration not stated)	257 to 260
Cc1c(N=C=O)cnn1-c1ccccc1	56 to 60
O=C1C(=Cc2ccc(-c3ccc(Cl)cc3)o2)CCC1=Cc1ccc(-c2ccc(Cl)cc2)o1	264 to 266
O=[N+]([O-])C(Br)C(Br)c1cccc(C(Br)C(Br)[N+](=O)[O-])c1 (configuration not stated)	147
Cc1cc(C)c(NC(=O)C(C(F)(F)F)C(F)(F)F)c(C)c1	189
Clc1ccc(O[Si]23OCCN(CCO2)CCO3)cc1	166
O=C(Cl)c1ccccc1Cl	-4
O=C1NC2=Cc3ccccc3C2(O)Cc2ccccc21 (configuration not stated)	209
Cc1nn(C)c(C)c1N=C=O	36 to 40
S=C=Nc1ccc(Br)cc1Cl	46
Cn1c(CO)cnc1S	220 to 222

Structure (SMILES)	melting point [°C]
Cc1ccc(O)c(C(=O)c2ccccc2)c1	83 to 85
COC(=O)c1scc(S(=O)(=O)C(C)C)c1S(=O)(=O)Cl	128 to 129
COc1ccc2cc(Br)ccc2c1CC#N	147 to 148
Oc1cccc(Cl)n1	130
C=CCc1cc2c(c(OC)c1OC)OCO2	29.5
COC(=O)c1cc(Br)cc(C(=O)OC)c1	89 to 91
C=CCn1c(=O)oc(=O)c2ccccc21	111 to 113
COC(=O)Cc1csc2ccc(Cl)cc12	55 to 56
BrC(Br)c1ccccc1C(Br)Br	116
CSC(SC)=C(C#N)C(=O)NCc1ccccc1	81
Cc1nnc2n1-c1sc(Br)cc1C(c1ccccc1Cl)=NC2	213
O=Cc1ccc(CN2C(=O)c3ccccc3C2=O)o1	125 to 126
CCCCCCCCCCCCCC(=O)OC(=O)CCCCCCCCCCCCC	53.4
CC(C)(C)OC(=O)CC(NC(=O)OCC1c2ccccc2-c2ccccc21)C(=O)O (configuration not stated)	147 to 151
Oc1c(Br)cc(Br)cc1Br	95.5
CC(CNC(=O)c1ccccc1)C(=O)OCC(=O)C12OC(C)(C)OC1CC1C3CCC4=CC(=O)C=CC4(C)C3(F)C(O)CC12C (configuration not stated)	205
CCOC(=O)c1ccc(OC)c(OC)c1Cl	50 to 52
FC(F)(F)C(Cl)=C(Cl)C(F)(F)F	-67.3
COc1cc([N+](=O)[O-])c(OC)cc1N	153 to 157
CC(=O)OCC12CC(OC(=O)CC(C)C)C(C)=CC1OC1C(O)C(OC(C)=O)C2(C)C12CO2 (configuration not stated)	152
Clc1cccc(Cl)c1N=C1NCCN1	130
C=C(CC(=O)OCC)C(=O)OCC	58.5

Structure (SMILES)	melting point [°C]
O=C(O)CP(=O)(O)O	144
O=[N+]([O-])c1cc(F)cc(F)c1	17
CCS(=O)(=O)c1cccnc1S(=O)(=O)NC(=O)Nc1nc(OC)cc(OC)n1	177
O=C1NN=C(C(F)(F)F)C1=NNc1ccc(Br)cc1	212
C=C1CCC1	-135
Cc1ccc(N=C(CNc2ccc(C)cc2)Nc2ccc(C)cc2)cc1	136
O=[N+]([O-])c1ccc(/C=C\c2ccccc2C=NNc2ccccc2)c([N+](=O)[O-])c1	193
[O-][N+](=Nc1ccc(N=Nc2ccccc2)cc1)c1ccc(N=Nc2ccc(N=Nc3ccccc3)cc2)cc1	253
Cc1ccc(-c2cc(C(=O)O)c(C)o2)cc1	230 to 232
Cc1ccc(C)c2ncccc12	4.5
Cn1c(=O)c(C2=NNC(=O)C2=CNc2nccs2)c(O)c2ccccc21	248
NNCc1ccccc1	26
COc1cc(O)c(C(C)=O)c(OC)c1	82
N#Cc1ccc(Br)cn1	126
Cn1ccsc1=NC(=O)c1ccccc1	114
O=C(O)c1cccnc1Oc1ccc2c(c1)OCO2	181 to 183
O=C(O)CCCCc1ccc(F)cc1	74
O=C(O)c1cc2cc3c4c(c2oc1=O)CCCN4CCC3	240
O=C1Cc2cc3c(cc21)CC3=O	237
O=C(Cl)c1ccc2sccc2c1	86 to 87
NC(=O)c1ccccc1C(F)(F)F	163
Nc1cc(Cl)nc(N)n1	201

Structure (SMILES)	melting point [°C]
COc1ccc(C2Nn3c(nnc3-c3cccnc3)S2)cc1 (configuration not stated)	219
CC1(C)CC2(CC(C)(C)c3cc(O)c(O)cc32)c2cc(O)c(O)cc21	300
O=COC1OC(=O)c2ccccc21 (configuration not stated)	82
Cc1ccc(NC(=O)C(C(F)(F)F)C(F)(F)F)c(C)c1	193
CCOC(=O)c1cc2c(=O)oc3ccccc3c2nc1NC	232 to 233
COc1cc(C=O)c([N+](=O)[O-])cc1OC	133
Cc1c(S(=O)(=O)Cl)cnn1-c1ccccc1	57
O=C(O)C1CNC1	250 to 292
CCOC(=O)C1=C(N)Oc2ccc3ccccc3c2[C@H]1c1ccc(C)cc1	201
Cc1nnc(Sc2ccc(C=O)o2)n1C	143 to 147
CC1(C)CCC2(C(=O)O)CCC3(C)C(=CCC4C5(C)CCC(O)C(C)(C=O)C5CCC43C)C2C1 (configuration not stated)	275
CC1(C)C2CCC1(C)C(NC(=O)c1ccc([N+](=O)[O-])cc1)C2NC(=O)c1ccc([N+](=O)[O-])cc1 (configuration not stated)	170
CC(C)(C)OC(=O)Nc1ccc(CN)cc1	89 to 94
CC(C)(S)C(N)C(=O)O (configuration not stated)	212
C=CCn1c(S)nnc1-c1ccc2ncccc2c1	211 to 214
O=C(OC(=O)C(c1ccccc1)c1ccccc1)C(c1ccccc1)c1ccccc1	98
CC(=O)/C(=N\Nc1cccc(C(F)(F)F)c1)C(=O)C(F)(F)F	85 to 87
O=C(OCCCl)OCCCl	8
c1ccc2nonc2c1	54
